Source: US8063071B2 (GlaxoSmithKline, LLC, priority 2007, dated 2011)
Where a name gives a salt, the structure may show the parent alone.

Key:
[1] = system: human monocyte stimulated cytokine production (TNF-α); experiment: Monocyte assay (LPS-stimulated TNF-α production); assay type: cell-based; settings: for IC50: 24 h, 200 ng/mL LPS, TNF-α by ELISA; for inhibition at 0.3 µM: read-out: inhibition at 300 nM in the monocyte assay
Outline: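 Human CD14+ monocytes were purified from blood and plated at 1×10^6 cells/mL in RPMI 1640 with 10% FBS. Compound was added 30 min before stimulation with 200 ng/mL LPS (0.1% DMSO final), followed by 24 hrs at 37 C. Supernatant TNF-α was measured by ELISA, and viability by trypan blue exclusion.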

[2] = biological target: T1, Recombinant human IKKβ (residues 1-737) (Homo sapiens, UniProt O14920); experiment: IKK2 assay (TR-FRET); assay type: biochemical; settings: ATP 1 μM final, read-out: pIC50 against IKK2 (converted)
T1 construct: Recombinant human IKKβ (residues 1-737); GST (C); made in house
T1 sequence (O14920 1-737): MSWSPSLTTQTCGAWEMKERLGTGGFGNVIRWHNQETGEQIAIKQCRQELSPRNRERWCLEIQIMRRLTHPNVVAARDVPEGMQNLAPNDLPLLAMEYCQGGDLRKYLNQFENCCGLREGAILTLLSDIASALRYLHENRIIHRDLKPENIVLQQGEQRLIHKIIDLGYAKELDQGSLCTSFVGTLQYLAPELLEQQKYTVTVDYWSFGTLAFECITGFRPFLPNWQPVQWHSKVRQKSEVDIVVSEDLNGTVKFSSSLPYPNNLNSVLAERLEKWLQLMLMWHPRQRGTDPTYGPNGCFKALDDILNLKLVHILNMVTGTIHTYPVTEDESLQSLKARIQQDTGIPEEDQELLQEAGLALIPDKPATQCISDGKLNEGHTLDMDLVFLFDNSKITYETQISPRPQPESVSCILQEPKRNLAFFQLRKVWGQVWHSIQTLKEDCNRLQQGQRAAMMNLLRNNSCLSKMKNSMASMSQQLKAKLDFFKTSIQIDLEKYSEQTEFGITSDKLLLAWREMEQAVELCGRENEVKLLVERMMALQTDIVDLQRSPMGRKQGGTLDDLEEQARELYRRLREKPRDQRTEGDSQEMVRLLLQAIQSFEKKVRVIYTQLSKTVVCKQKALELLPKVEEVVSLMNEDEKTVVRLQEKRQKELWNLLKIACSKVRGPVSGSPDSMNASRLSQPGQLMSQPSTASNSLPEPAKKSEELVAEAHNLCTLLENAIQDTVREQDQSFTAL
Outline: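 Baculovirus-expressed C-terminal GST-tagged IKKβ (0.5-5 nM final) in HEPES pH 7.4, MgCl2, CHAPS, DTT, BSA with 1.7% DMSO; 25 nM GST-IB substrate and 1 μM ATP, 15 min at room temperature. EDTA stop; phospho-Ser32/36 detected by Eu-antibody/APC-anti-GST TR-FRET, 665/620 nm ratio.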

SMILES | IC50 [1] [µM] | IC50 [2] [µM] | inhibition at 0.3 µM [1] [%]
CCN(CC)CCN(C)Cc1cc(-c2cc(C(N)=O)c3[nH]cc(C4CCN(S(=O)(=O)CC)CC4)c3c2)cs1 [Example 66, 5-(5-{[[2-(diethylamino)ethyl](methyl)amino]methyl}-3-thienyl)-3-[1-(ethylsulfonyl)-4-piperidinyl]-1H-indole-7-carboxamide trifluoroacetate] | ≤ 1.5 | ≤ 10 | 
CCS(=O)(=O)N1CCC(c2c[nH]c3c(C(N)=O)cc(-c4cccc(CCN(C)C)c4)cc23)CC1 [Example 348, 5-{3-[2-(dimethylamino)ethyl]phenyl}-3-[1-(ethylsulfonyl)-4-piperidinyl]-1H-indole-7-carboxamide trifluoroacetate] | ≤ 1.5 | ≤ 10 | 
CC[C@@H](C)NCc1cccc(-c2cc(C(N)=O)c3[nH]cc(C4CCN(S(=O)(=O)CC)CC4)c3c2)c1 [Example 155, 3-[1-(ethylsulfonyl)-4-piperidinyl]-5-[3-({[(1R)-1-methylpropyl]amino}methyl)phenyl]-1H-indole-7-carboxamide trifluoroacetate] | ≤ 1.5 | ≤ 10 | 
CCS(=O)(=O)N1CCC(c2c[nH]c3c(C(N)=O)cc(-c4cc(CNCCCOC)ccc4F)cc23)CC1 [Example 343, 3-[1-(ethylsulfonyl)-4-piperidinyl]-5-[2-fluoro-5-({[3-(methyloxy)propyl]amino}methyl)phenyl]-1H-indole-7-carboxamide trifluoroacetate] | ≤ 1.5 | ≤ 10 | 
CCS(=O)(=O)N1CCC(c2c[nH]c3c(C(N)=O)cc(-c4cc(CNCCOC)ccc4F)cc23)CC1 [Example 342, 3-[1-(ethylsulfonyl)-4-piperidinyl]-5-[2-fluoro-5-({[2-(methyloxy)ethyl]amino}methyl)phenyl]-1H-indole-7-carboxamide trifluoroacetate] | ≤ 1.5 | ≤ 10 | 
CCS(=O)(=O)N1CCC(c2c[nH]c3c(C(N)=O)cc(-c4cccc(CN5CCOCC5)c4)cc23)CC1 [Example 3, 3-[1-(ethylsulfonyl)-4-piperidinyl]-5-[3-(4-morpholinylmethyl)phenyl]-1H-indole-7-carboxamide] | ≤ 1.5 | ≤ 10 | 
CCS(=O)(=O)N1CCC(c2c[nH]c3c(C(N)=O)cc(-c4csc(CN5CCCC5C(C)C)c4)cc23)CC1 (centres unmarked) [Example 94, 3-[1-(ethylsulfonyl)-4-piperidinyl]-5-(5-{[2-(1-methylethyl)-1-pyrrolidinyl]methyl}-3-thienyl)-1H-indole-7-carboxamide] |  | ≤ 10 | 0 to 60
CCS(=O)(=O)N1CCC(c2c[nH]c3c(C(N)=O)cc(-c4csc(CN(C)[C@@H](C)CO)c4)cc23)CC1 [Example 408, 3-[1-(ethylsulfonyl)-4-piperidinyl]-5-(5-{[[(1S)-2-hydroxy-1-methylethyl](methyl)amino]methyl}-3-thienyl)-1H-indole-7-carboxamide trifluoroacetate] | ≤ 1.5 | ≤ 10 | 
CC(C)S(=O)(=O)N1CCC(c2c[nH]c3c(C(N)=O)cc(-c4csc(CN5CCC[C@@H]5C(N)=O)c4)cc23)CC1 [Example 429, 5-(5-{[(2R)-2-(aminocarbonyl)-1-pyrrolidinyl]methyl}-3-thienyl)-3-[1-[(1-methylethyl)sulfonyl]-4-piperidinyl]-1H-indole-7-carboxamide] |  | ≤ 10 | 0 to 60
CCS(=O)(=O)N1CCC(c2c[nH]c3c(C(N)=O)cc(-c4csc(CN5CCC[C@@H]5C)c4)cc23)CC1 [Example 217, 3-[1-(ethylsulfonyl)-4-piperidinyl]-5-(5-{[(2S)-2-methyl-1-pyrrolidinyl]methyl}-3-thienyl)-1H-indole-7-carboxamide] | ≤ 1.5 | ≤ 10 | 
CCCCNCCn1cc(-c2cc(C(N)=O)c3[nH]cc(C4CCN(S(=O)(=O)CC)CC4)c3c2)cn1 [Example 256, 5-{1-[2-(butylamino)ethyl]-1H-pyrazol-4-yl}-3-[1-(ethylsulfonyl)-4-piperidinyl]-1H-indole-7-carboxamide trifluoroacetate] | > 1 | ≤ 10 | 
CCC(C)NCc1cc(F)cc(-c2cc(C(N)=O)c3[nH]cc(C4CCN(S(=O)(=O)CC)CC4)c3c2)c1 (centres unmarked) [Example 316, 3-[1-(ethylsulfonyl)-4-piperidinyl]-5-(3-fluoro-5-{[(1-methylpropyl)amino]methyl}phenyl)-1H-indole-7-carboxamide trifluoroacetate] | ≤ 1.5 | ≤ 10 | 
CCS(=O)(=O)N1CCC(c2c[nH]c3c(C(N)=O)cc(-c4ccc(CCNC)cc4)cc23)CC1 [Example 125, 3-[1-(ethylsulfonyl)-4-piperidinyl]-5-{4-[2-(methylamino)ethyl]phenyl}-1H-indole-7-carboxamide] | ≤ 1.5 | ≤ 10 | 
CCS(=O)(=O)N1CCC(c2c[nH]c3c(C(N)=O)cc(-c4cccc(CNS(=O)(=O)c5ccccc5Cl)c4)cc23)CC1 [Example 374, 5-[3-({[(2-chlorophenyl)sulfonyl]amino}methyl)phenyl]-3-[1-(ethylsulfonyl)-4-piperidinyl]-1H-indole-7-carboxamide] | > 1 | ≤ 10 | 
CCc1cc(Br)ccc1S(=O)(=O)NCc1cccc(-c2cc(C(N)=O)c3[nH]cc(C4CCN(S(=O)(=O)CC)CC4)c3c2)c1 [Example 381, 5-[3-({[(4-bromo-2-ethylphenyl)sulfonyl]amino}methyl)phenyl]-3-[1-(ethylsulfonyl)-4-piperidinyl]-1H-indole-7-carboxamide] | > 1 | ≤ 10 | 
CCS(=O)(=O)N1CCC(c2c[nH]c3c(C(N)=O)cc(-c4csc(CN(C)CC(C)C)c4)cc23)CC1 [Example 73, 3-[1-(ethylsulfonyl)-4-piperidinyl]-5-(5-{[methyl(2-methylpropyl)amino]methyl}-3-thienyl)-1H-indole-7-carboxamide trifluoroacetate] | ≤ 1.5 | ≤ 10 | 
CCS(=O)(=O)N1CCC(c2c[nH]c3c(C(N)=O)cc(-c4csc(C(C)N(C)CCOC)c4)cc23)CC1 (centres unmarked) [Example 416, 3-[1-(ethylsulfonyl)-4-piperidinyl]-5-[5-(1-{methyl[2-(methyloxy)ethyl]amino}ethyl)-3-thienyl]-1H-indole-7-carboxamide trifluoroacetate] | ≤ 1.5 | ≤ 10 | 
CCS(=O)(=O)N1CCC(c2c[nH]c3c(C(N)=O)cc(-c4csc(CCN(C)C)c4)cc23)CC1 [Example 223, 5-{5-[2-(dimethylamino)ethyl]-3-thienyl}-3-[1-(ethylsulfonyl)-4-piperidinyl]-1H-indole-7-carboxamide trifluoroacetate] | ≤ 1.5 | ≤ 10 | 
CCS(=O)(=O)N1CCC(c2c[nH]c3c(C(N)=O)cc(-c4cc(F)cc(CNCc5cccs5)c4)cc23)CC1 [Example 325, 3-[1-(ethylsulfonyl)-4-piperidinyl]-5-(3-fluoro-5-{[(2-thienylmethyl)amino]methyl}phenyl)-1H-indole-7-carboxamide trifluoroacetate] | ≤ 1.5 | ≤ 10 | 
CCS(=O)(=O)N1CCC(c2c[nH]c3c(C(N)=O)cc(-c4ccc(CNC(=O)c5cc(C)nn5C(C)(C)C)cc4)cc23)CC1 [Example 128, 5-{4-[({[1-(1,1-dimethylethyl)-3-methyl-1H-pyrazol-5-yl]carbonyl}amino)methyl]phenyl}-3-[1-(ethylsulfonyl)-4-piperidinyl]-1H-indole-7-carboxamide trifluoroacetate] | > 1 | ≤ 10 | 
CCCC1CCCN1Cc1cc(-c2cc(C(N)=O)c3[nH]cc(C4CCN(S(=O)(=O)CC)CC4)c3c2)cs1 (centres unmarked) [Example 89, 3-[1-(ethylsulfonyl)-4-piperidinyl]-5-{5-[(2-propyl-1-pyrrolidinyl)methyl]-3-thienyl}-1H-indole-7-carboxamide] | ≤ 1.5 | ≤ 10 | 
CCS(=O)(=O)N1CCC(c2c[nH]c3c(C(N)=O)cc(-c4cncc(CNCC(C)(C)C)c4)cc23)CC1 [Example 181, 5-(5-{[(2,2-dimethylpropyl)amino]methyl}-3-pyridinyl)-3-[1-(ethylsulfonyl)-4-piperidinyl]-1H-indole-7-carboxamide] |  | ≤ 10 | 0 to 60
